We go through 29 compounds from patent publication US20220324865A1 (Bayer Aktiengesellschaft, priority 2018, published 2022).

SMILES strings stand for the structures.

The target of this assay is T1, human EP3 receptor (Homo sapiens, UniProt P43115).
T1 construct: expressed in transfected cells; host or cells: CHO K1 (Chinese Hamster Ovary), stably co-transfected with Galpha16 and mitochondrial clytin
T1 sequence (P43115 1-390): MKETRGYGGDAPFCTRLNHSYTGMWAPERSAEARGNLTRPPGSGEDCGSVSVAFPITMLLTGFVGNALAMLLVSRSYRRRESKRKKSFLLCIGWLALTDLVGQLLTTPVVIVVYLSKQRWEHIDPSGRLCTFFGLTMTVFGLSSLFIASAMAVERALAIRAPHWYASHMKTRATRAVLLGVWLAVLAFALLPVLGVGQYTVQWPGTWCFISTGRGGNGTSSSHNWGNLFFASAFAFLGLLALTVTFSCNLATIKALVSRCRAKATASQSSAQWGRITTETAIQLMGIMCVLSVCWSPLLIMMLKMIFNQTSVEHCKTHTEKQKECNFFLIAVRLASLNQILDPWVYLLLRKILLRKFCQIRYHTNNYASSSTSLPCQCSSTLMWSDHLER
Briefly: Cellular in vitro assay for determining EP3 receptor activity (human EP3 cell line, sulprostone-stimulated calcium luminescence). It counts as cell-based. The note with it: CHO cells expressing human EP3 and mitochondrial Clytin; antagonist mode, sulprostone at EC50; read-out: EP3 CHO mtCLY ANTAG IC50. In a few lines: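 Antagonist activity was measured as inhibition of the luminescent calcium signal elicited by EC50 sulprostone, following 10 min compound pretreatment. The cell line was recombinant CHO K1 co-expressing human EP3, Gα16 and the photoprotein Clytin, reconstituted with coelenterazine.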
As for `Cc1cc(-c2cn3nc(C(=O)NCC(N)C(F)(F)F)c(C4CC4)c3c(=O)[nH]2)ccc1C(F)(F)F` (single isomer, unassigned) [6-131], the concentration for half-maximal inhibition (IC50) (usually the concentration needed to halve the response being measured) was determined as 10.1 nM.

Turning to `Cc1cccc2ncc(-c3cn4nc(C(=O)N[C@H]5CCCc6ccccc65)c(C(C)C)c4c(=O)[nH]3)cc12` [Example 4-58, 6-(5-Methylquinolin-3-yl)-4-oxo-3-(propan-2-yl)-N-[(7S)-1,2,3,4-tetrahydronaphthalen-1-yl]-4,5-dihydropyrazolo[1,5-a]pyrazine-2-carboxamide], the half-maximal inhibitory concentration (IC50) was 4.3 nM. For `O=C(NCCc1ccccc1F)c1cc2c(=O)[nH]c(-c3ccc4ccccc4c3)cn2n1` [Example 2-9, N-[2-(2-Fluorophenyl)ethyl]-6-(2-naphthyl)-4-oxo-4,5-dihydropyrazolo[1,5-a]pyrazine-2-carboxamide] the value was 3.65 nM; for `O=C(N[C@H](CCO)c1ccc(F)cc1)c1nn2cc(-c3ccc(Cl)c(C(F)F)c3)[nH]c(=O)c2c1C1CC1` [6-668], 1.09 nM; for `COc1ccc(C(C)NC(=O)c2nn3c(C)c(-c4ccc5ccccc5c4)[nH]c(=O)c3c2C)cc1F` (centres unmarked) [Example 3-74, N-[1-(3-Fluoro-4-methoxyphenyl)ethyl]-3,7-dimethyl-6-(2-naphthyl)-4-oxo-5H-pyrazolo[1,5-a]pyrazine-2-carboxamide], 4.8 nM. `CN1CC(NC(=O)c2nn3cc(-c4ccc5ccccc5c4)[nH]c(=O)c3c2C2CC2)(c2ccc(F)cc2)C1` [Example 1-82, 3-Cyclopropyl-N-[3-(4-fluorophenyl)-1-methylazetidin-3-yl]-6-(naphthalen-2-yl)-4-oxo-4,5-dihydropyrazolo[1,5-a]pyrazine-2-carboxamide]: the IC50 is 4.6 nM. For `Cc1cccc2ncc(-c3cn4nc(C(=O)NC(CN5CCCC5)c5ccccc5)c(C(C)C)c4c(=O)[nH]3)cc12` (centres unmarked) [Example 4-63, 3-Isopropyl-6-(5-methylquinolin-3-yl)-4-oxo-N-[1-phenyl-2-(pyrrolidin-1-yl)ethyl]-4,5-dihydropyrazolo[1,5-a]pyrazine-2-carboxamide] the value was 9.45 nM. For `O=C(NC(CN1CCCC1)c1ccc(F)cc1)c1cc2c(=O)[nH]c(-c3ccc4ccccc4c3)cn2n1` (centres unmarked) [Example 1-44, N-[1-(4-Fluorophenyl)-2-(pyrrolidin-1-yl)ethyl]-6-(2-naphthyl)-4-oxo-5H-pyrazolo[1,5-a]pyrazine-2-carboxamide] the value was 8.97 nM; for `Cc1cccc2ncc(-c3cn4nc(C(=O)NC5CCS(=O)(=O)C5)c(C(C)C)c4c(=O)[nH]3)cc12` (centres unmarked) [Example 4-12, N-(1,1-Dioxothiolan-3-yl)-3-isopropyl-6-(5-methyl-3-quinolyl)-4-oxo-5H-pyrazolo[1,5-a]pyrazine-2-carboxamide], 1.65 nM.

`Cc1ccc(-c2cn3nc(C(=O)NC4(c5ccc(F)cc5)CCN(C)C4)cc3c(=O)[nH]2)cc1C` (racemic) [6-362]: the IC50 came out at 27 nM. For `Cc1c(C(=O)NCc2cccc(CN(C)C)c2)nn2c(C)c(-c3ccc4ccccc4c3)[nH]c(=O)c12` [Example 3-42, N-({3-[(Dimethylamino)methyl]phenyl}methyl)-3,7-dimethyl-6-(naphthalen-2-yl)-4-oxo-4,5-dihydropyrazolo[1,5-a]pyrazine-2-carboxamide] the value was 4.9 nM; for `CC(C)(O)[C@@H](NC(=O)c1nn2cc(-c3ccc(Cl)cc3)[nH]c(=O)c2c1C1CC1)c1ccc(F)cc1` [6-676], 3.55 nM; for `Cc1ccc(-c2cn3nc(C(=O)NCC(N)C(F)(F)F)c(C4CC4)c3c(=O)[nH]2)cc1F` (racemic) [6-395], 6.6 nM. Consider `COc1ccc(C2(NC(=O)c3nn4cc(-c5ccc(C)c(Cl)c5)[nH]c(=O)c4c3C3CC3)CN(C)C2)cc1` [6-257], for which the IC50 was determined as 3.3 nM.

Regarding `CCn1ccc(C(C)NC(=O)c2nn3c(C)c(-c4ccc5ccccc5c4)[nH]c(=O)c3c2C)n1` (centres unmarked) [Example 3-4, N-[1-(1-Ethylpyrazol-3-yl)ethyl]-3,7-dimethyl-6-(2-naphthyl)-4-oxo-5H-pyrazolo[1,5-a]pyrazine-2-carboxamide], the IC50 amounted to 2.6 nM.

For the compound `CC(C)CN1CC(NC(=O)c2nn3cc(-c4ccc5ccccc5c4)[nH]c(=O)c3c2C(F)(F)F)(c2ccc(F)cc2)C1` [Example 1-128, N-[3-(4-Fluorophenyl)-1-(2-methylpropyl)azetidin-3-yl]-6-(naphthalen-2-yl)-4-oxo-3-(trifluoromethyl)-4,5-dihydropyrazolo[1,5-a]pyrazine-2-carboxamide], the IC50 turned out to be 2.9 nM. For `COC[C@H](Cc1ccccc1)NC(=O)c1cc2c(=O)[nH]c(-c3ccc4ccccc4c3)cn2n1` [Example 2-25, N-[(2S)-1-Methoxy-3-phenylpropan-2-yl]-6-(2-naphthyl)-4-oxo-4,5-dihydropyrazolo[1,5-a]pyrazine-2-carboxamide] the value was 2.9 nM. The value for `Cc1ccc(-c2cn3nc(C(=O)N[C@H](C)C4CC4)c(C(F)(F)F)c3c(=O)[nH]2)cc1C` [6-120] was 0.78 nM; that for `Cc1cc(-c2cn3nc(C(=O)N[C@@H](c4ccc(F)cc4)C(F)(F)CO)c(C(F)(F)F)c3c(=O)[nH]2)ccc1F` [6-647] was 3.03 nM.

Take `CCCc1c(C(=O)NC2(c3ccc(F)cc3)CN(C)C2)nn2cc(-c3ccc(C)c(C)c3)[nH]c(=O)c12` [6-616]: the IC50 came to 0.78 nM. For the compound `Cc1ccc(-c2cn3nc(C(=O)N[C@H](C)C(C)(C)C)c(C(F)(F)F)c3c(=O)[nH]2)cc1Cl` [6-192], the IC50 came to 3.03 nM.

As for `C[C@H](NC(=O)c1nn2cc(-c3ccc(Cl)c(F)c3)[nH]c(=O)c2c1C1CC(F)(F)C1)C1CC1` [6-556], the IC50 came out at 2.15 nM. With `CC(C)(O)[C@@H](NC(=O)c1nn2cc(-c3cc(F)c(Cl)c(F)c3)[nH]c(=O)c2c1C1CC1)c1ccc(F)cc1` [6-475], the IC50 came to 2.58 nM.

On to `CC(C)c1c(C(=O)N[C@H](C)c2ccc(F)cc2)nn2cc(-c3ccc4ccccc4c3)[nH]c(=O)c12` [Example 1-8, N-[(1R)-1-(4-Fluorophenyl)ethyl]-6-(naphthalen-2-yl)-4-oxo-3-(propan-2-yl)-4,5-dihydropyrazolo-[1,5-a]pyrazine-2-carboxamide], for which the IC50 amounted to 1.36 nM.

`Cc1c(C(=O)N[C@@H](c2ccc(F)cc2)C(C)(C)O)nn2c(C)c(-c3ccc4ccccc4c3)[nH]c(=O)c12` [6-604]: the IC50 is 1.85 nM.

`O=C(NC(c1ccccc1)C(F)F)c1cc2c(=O)[nH]c(-c3ccc4ccccc4c3)cn2n1` (centres unmarked) [Example 2-4, N-(2,2-Difluoro-1-phenylethyl)-6-(2-naphthyl)-4-oxo-4,5-dihydropyrazolo[1,5-a]pyrazine-2-carboxamide]: the IC50 came to 1.07 nM. The value for `Cc1cccc2ncc(-c3cn4nc(C(=O)NCCOCC(F)(F)F)c(C(C)C)c4c(=O)[nH]3)cc12` [Example 4-39, 6-(5-Methylquinolin-3-yl)-4-oxo-3-(propan-2-yl)-N-[2-(2,2,2-trifluoroethoxy)ethyl]-4,5-dihydropyrazolo[1,5-a]pyrazine-2-carboxamide] was 1.85 nM; that for `COC[C@H](NC(=O)c1cc2c(=O)[nH]c(-c3ccc(C)c(C)c3)cn2n1)c1ccccc1` [6-50] was 1.3 nM; that for `Cc1ccc(-c2cn3nc(C(=O)NCC(O)C(F)(F)F)c(C4CC4)c3c(=O)[nH]2)cc1Cl` (single isomer, unassigned) [6-260] was 0.82 nM.
